Experimental data published in article PMC5489165, “Identification of benzazole compounds that induce HIV-1 transcription” (PLoS ONE, 2017).

Legend:
[1] = Protein binding, mouse plasma (ultrafiltration); type: in vitro ADME; conditions: pH 7.4
Method: Binding of test compound to plasma proteins was estimated by incubation of test compounds with mouse or human plasma. Human plasma was obtained from BioreclamationIVT (Westbury, NY). […] After a 15 min incubation at 37°C, triplicate aliquots of the incubation mixtures were transferred to a Millipore Multiscreen Ultracel-10 filter plate (10 kDa molecular mass cut off, EMD Millipore, Billerica, MA). The plate was centrifuged for 60 min at 3000 × g and 37°C. After centrifugation, aliquots of both the ultrafiltrates as well as the incubation mixtures prior to ultrafiltration were analyzed by LC-MS/MS to quantify the concentrations of test compound and reference compounds.

[2] = system: HIV-1 transcription in 24STNLSG cells; experiment: SEAP assay in 24STNLSG cells (latency reactivation); type: cell-based; conditions: for EC2X, 24STNLSG: concentration for 2-fold increase in SEAP activity; for Activity in 24STNLSG cells (in words): structure-activity
Method: SupT1-derived 24STNLSG cells were plated at 100,000 cells/well in black bottom/black walled 96-well plates in 50 μl RPMI-1640 medium (without phenol red) containing 10% FBS. Compound was added in 50 μl of identical medium using three-fold dose-response dilutions, in duplicate. […] TNF-α, a nuclear factor-κB (NF-κB) activator known to induce HIV- expression in cellular models, was used as a positive control. Plates were incubated for 72 h at 37°C, 5% CO2. Plates were then sealed and heated to 65°C for 30 min. Plates were brought to room temperature and 50 μl assay buffer (1 mM MgCl2, 10 mM L-homoarginine, 1 M diethylamine hydrochloride) was added to each well and incubated for 5 min at room temperature. To each well, 50 μl of CSPD Substrate (0.4 mM Ready-to-Use with Sapphire-II Enhancer; Applied Biosystems, Foster City, CA) was added. Plates were incubated for 20 min at room temperature and read on a ViewLux microplate imager (Perkin Elmer, Waltham, MA). Curves were fit by non-linear regression using Prism software (GraphPad, San Diego, CA).

[3] = Cytotoxicity assay in SupT1 cells (ATP, CellTiter-Glo); type: cell-based; conditions: human, SupT1 cells; ATP quantification; 72 h; read-out: CC50, SupT1
Method: SupT1 cells were plated at 100,000 per well in 96-well, white-walled plates with serial dilutions of test compound in a total volume of 100 μl RPMI-1640 medium containing 10% FBS and 0.5% DMSO. PBMCs were plated similarly at 50,000 cells/well and stimulated by addition of 40 μg/ml PHA and 80 ng/ml interleukin-2 (IL-2). Cells were incubated for 72 h at 37°C, 5% CO2. ATP was quantified using the CellTiter-Glo Luminescent Cell Viability Assay (Promega, Madison, WI) on a ViewLux microplate imager (Perkin Elmer, Waltham, MA). Percent cytotoxicity was determined relative to vehicle-only treated wells.

[4] = Microsome assay, human liver microsomes; type: in vitro ADME
Method: (§1) Human and mouse liver microsomes were obtained from XenoTech, LLC (Kansas City, KS). The reaction mixture was composed of liver microsomes (0.5 mg/mL), 20 mM Tris-HCl pH 7.4, 2.5 mM MgCl2, and an NADPH generating system (0.1 mM NADP, 1.2 mM glucose-6-phosphate and 0.3 units/ml glucose-6-phophate dehydrogenase). […] Test compounds were added to the microsome reaction and loss of parent molecule was monitored after 1 h by LC/MS/MS.

[5] = Microsome assay, mouse liver microsomes; type: in vitro ADME
Method: as §1

[6] = system: HIV-1 Gag (p24) in ACH-2 cells; experiment: Intracellular staining for HIV Gag in ACH-2 cells (flow cytometry); type: cell-based; conditions: 16 h, 30 μM Cmpd 1 or Cmpd 2, 10 μM SAHA, 1 mM JQ1 or 10 ng/ml PMA, single experiment (Fig 4A)
Method: ACH-2 cells were treated as indicated and HIV-1 expression was monitored by intracellular staining for p24. Approximately, 1 × 10^6 cells were collected and washed in PBS before fixing by resuspending in 100 μl of BD Cytofix/Cytoperm (BD Biosciences, San Jose, CA) at 4°C for at least 20 min. Cells were then harvested by centrifugation and resuspended in 100 μl BD PermWash (50 mM NH4Cl, 5 mM EDTA, 0.1% saponin, 0.5% BSA, PBS and 1 mg/ml of anti-HIV-Gag PE (Clone KC57, Beckman Coulter, Brea CA). Cells were stained for 30 min, washed with the PermWash, and resuspended in FACS buffer (2 mM EDTA, 0.5% BSA, 1% paraformaldehyde in PBS). Cells were analyzed by flow cytometry using a FACSCalibur instrument (BD Biosciences). Flow cytometry was performed at the Boston University School of Medicine flow cytometry core.
Fig 4 Induction of HIV-1 expressing cells following treatment with latency reversing agents. ACH-2 cells were not treated or treated with a final concentration of 30 μM Cmpd 1 or Cmpd 2, 10 μM SAHA, 1 mM JQ1 or 10 ng/ml PMA for 16 h. Cells were stained using anti-HIV-Gag-PE and analyzed by flow cytometry. Numbers within the profiles represent the percentage of positive cells. These profiles are from a single experiment. B) Data from four independent experiments. Y-axis is mean of % p24 positive cells. * Cmpd 1 p-value […] compared to other treatments using a two-tailed t-test. TEXT PRINTED IN THE PICTURE: (A) Cmpd 1: Intracellular Gag: 65.6% | (A) Cmpd 2: Intracellular Gag: 33.9% | (A) SAHA: Intracellular Gag: 23.0% | (A) JQ1: Intracellular Gag: 16.7% | (A) PMA: Intracellular Gag: 94.2%

[7] = system: Epstein-Barr virus (EBV) in Raji cells; experiment: EBV activation assay in Raji cells (BZLF1 qRT-PCR); type: cell-based; conditions: Raji cells, 24 h, concentrations as low as 0.014 ng/ml
IL-2 secretion by PBMCs = experiment: IL-2 ELISA in PBMCs; type: cell-based, human; conditions: 24 h
Method: Cryopreserved PBMCs from a single donor were thawed in RPMI-1640 plus 10% FBS. PBMCs were plated at 5×10^4/well in 96-well plates and compound was added with a final concentration of 0.5% DMSO. Plates were incubated for 24 h at 37°C, 5% CO2. Interleukin-2 was quantified using Human IL-2 DuoSet ELISA (R&D Systems, Minneapolis, MN). Raw data were converted to ng/ml IL-2 using a standard curve obtained in parallel.

[8] = system: Kaposi's sarcoma associated herpesvirus (KSHV) in BCP-1 cells; experiment: KSHV activation assay in BCP-1 cells (ORF50 qRT-PCR); type: cell-based; conditions: 24 h, concentrations as low as 0.014 ng/ml
[9] = Protein binding, human plasma (ultrafiltration); type: in vitro ADME; conditions: human plasma, 10 μM, pH 7.4
[10] = system: NF-κB response element reporter in Jurkat cells; experiment: NF-κB-responsive Fluc reporter in Jurkat cells; type: cell-based, human; conditions: stably-transfected Jurkat cells, 4 h
Description: The vector pGL4.32[luc2P/NF-κB-RE/Hygro] was purchased from Promega (Madison, WI), encoding 5 copies of a NF-κB response element driving expression of synthetic firefly luciferase gene, luc2, including a PEST destabilization sequence. Jurkat cells were transfected with this vector using a Gene Pulser® II (Biorad, Hercules, CA) with a 0.4 cm gap cuvette at 0.2 kV and 960 μF. Cells were allowed to recover for three days in RPMI-1640 with 10% FBS and 1% penicillin/streptomycin before selection with 200 μg/ml Hygromycin B for one month. Pooled, stably-transfected cells were plated at 50,000/well in 96-well plates and treated with test compounds in a final concentration of 0.5% DMSO for 4 h at 37°C. Luciferase activity was determined by adding one volume 2× steadylite plus reagent (Perkin Elmer, Waltham, MA) and reading on a ViewLux microplate imager.

HIV-1 LTR = experiment: HIV LTR-driven Rluc reporter in HeLa cells; type: cell-based; conditions: transfected HeLa cells, 24 h
Description: The vector pGL4.77[hRlucP/Hygro] encoding a Renilla luciferase gene including a PEST destabilization sequence, was purchased from Promega (Madison, WI). HIV-1 cDNA was generated from HIVIIIB virus using PureLink® Viral RNA/DNA Mini Kit (Invitrogen). The HIV-1 core promoter region (nucleotides -105 to 60) was amplified from HIVIIIB cDNA using primers designed with NheI (forward: 5ʹ-GCTAGCGGGACTTTCCGCTGGG-3ʹ) and XhoI (reverse: 5ʹ-CTCGAGAGTGGGTTCCCTAGTTAGCCA-3ʹ) flanking restriction site sequences. DNA fragments were generated using Platinum® Taq DNA Polymerase High Fidelity (Invitrogen) and fragment size was verified by electrophoresis using E-Gel® 1.2% agarose (Invitrogen). Fragments were cloned into pCR™2.1 TOPO® (Invitrogen), transformed into One Shot® TOP10 Chemically Competent E. coli (Invitrogen), and selected on LB-agar plates containing 100 μg/ml ampicillin. Individual colonies were grown in LB broth, DNA was isolated using QIAprep® Spin Miniprep Kit (Qiagen), and the inserted fragment was verified by EcoRI digestion followed by electrophoresis using E-Gel® 1.2% agarose (Invitrogen). To insert the HIV-1 LTR into the vector multiple cloning region, the resultant plasmids and pGL4.77[hRlucP/Hygro] were dually digested with NheI and XhoI (New England Biolabs), ligated using ExpressLink™ T4 DNA Ligase (Invitrogen), transformed into One Shot® TOP10 Chemically Competent E. coli (Invitrogen), and selected on LB-agar plates containing 100 μg/ml ampicillin. Clones were picked and DNA isolated using QIAprep® Spin Miniprep Kit (Qiagen) and the inserted fragment was verified by NheI/XhoI digestion followed by electrophoresis using E-Gel® 1.2% agarose (Invitrogen). The resultant plasmid, pGL4.77-LTR, was verified by sequencing at GENEWIZ (South Plainfield, NJ). […] Luciferase activity was quantified using Renilla Luciferase Assay System (Promega, Madison, WI) and results were normalized to the vehicle-treated control.

## CC(=O)CC(c1ccccc1)c1c(O)c2ccccc2oc1=O (racemic) [Warfarin, (RS)-warfarin, reference compound]
[1]; mouse, plasma
  fraction unbound at 15 min, 10 μM: 0.047

## Nc1ccc2[nH]c(-c3ccc(-c4nc5c(N)cccc5o4)cc3)nc2c1 [Compound 3]
[2]; SEAP reporter, 72 h
  Max. fold induction, 24STNLSG: 3 fold
[2]; 72 h
  EC2X, 24STNLSG: 3.7 µM
[3]
  CC50 at 72 h: 8.8 µM

## Cn1c(-c2ccc(-c3nc4cc(N)ccc4o3)cc2)nc2cc(N)ccc21 [Compound 4]
[2]; 72 h
  EC2X, 24STNLSG: >100 µM
[2]
  Activity in 24STNLSG cells (in words): complete loss of activity
[3]
  CC50 at 72 h: > 100 µM

## Nc1ccc2oc(-c3ccc(-c4nc5cc(N)ccc5o4)cc3)nc2c1 [Compound 5]
[2]; 72 h
  EC2X, 24STNLSG: >100 µM
[2]
  Activity in 24STNLSG cells (in words): inactive
[3]
  CC50 at 72 h: > 100 µM

## Nc1ccc2[nH]c(-c3ccc(-c4nc5cc(N)ccc5[nH]4)cc3)nc2c1 [Compound 6]
[2]; 72 h
  EC2X, 24STNLSG: >100 µM
[2]
  Activity in 24STNLSG cells (in words): inactive
[3]
  CC50 at 72 h: > 100 µM

## CC(C)N(CCC(C(N)=O)(c1ccccc1)c1ccccn1)C(C)C (stereo not shown) [Disopyramide, reference compound]
[4]
  HLM stability (% loss of parent compound at 1 h): 9%
[5]
  MLM stability (% loss of parent compound at 1 h): 12%

## Cc1sc2c(c1C)C(c1ccc(Cl)cc1)=N[C@@H](CC(=O)OC(C)(C)C)c1nnc(C)n1-2 [JQ1, reference compound]
[6]
  Intracellular Gag, percentage of positive cells: 16.7%

## CCCCCCCCCCCCCC(=O)O[C@@H]1[C@@H](C)[C@@]2(O)[C@@H](C=C(CO)C[C@]3(O)C(=O)C(C)=C[C@@H]23)[C@@H]2C(C)(C)[C@]12OC(C)=O [PMA, phorbol 12-myristate 13-acetate, reference compound]
[7]
  Stimulation of BLZF1 mRNA (EBV): > 35 fold
IL-2 secretion by PBMCs
  IL-2 secretion by PBMCs (in words): induced high levels of IL-2
[6]
  Intracellular Gag, percentage of positive cells: 94.2%
[8]
  Stimulation of ORF50 mRNA (KSHV): > 35 fold

## CC(C)NCC(O)COc1cccc2ccccc12 (stereo not shown) [Propanolol, propranolol, reference compound]
[9]
  % Plasma protein binding (human): 74.3%
[1]; mouse plasma, 10 μM
  % Plasma protein binding (mouse): 73.8%

## O=C(CCCCCCC(=O)Nc1ccccc1)NO [SAHA, Suberanilohydroxamic acid, reference compound]
[6]
  Intracellular Gag, percentage of positive cells: 23.0%

## TNF-α
[10]
  Induction of NF-κB driven reporter (in words): strongly induced this reporter
HIV-1 LTR
  Transcription driven by the HIV-1 LTR (in words): significantly increased expression of this reporter
